Read-outs that look alike come from different tables or passages of the source.
Assays:
[1] = tested on: Empty Vector (EV) dedifferentiated liposarcoma cells (cell lines Lipo863 and Lipo815); experiment: Migration assay, Empty Vector (EV) control cells; type: cell-based, human; conditions: for reduction in cell migration, Empty Vector (EV): 24 hours of treatment, EV cells, non-cytotoxic concentration, vs control group, FIG. 16A-16B
Description: (§1) FIG. 16A-16B. Evaluation of the effect of IWS1 inhibitors identified from in silico screening on the migration of cancer cells. […] The migration assay was performed using two cell groups: Empty Vector (EV, Negative control) and shIWS1 (IWS1 knockdown).
FIG. 17. Evaluation of the dose-dependent effect of IWS1 inhibitors identified from in silico screening on the migration of cancer cells. Cell migration in vitro represents to some extent the ability of cells to metastasize in vivo.
(§2) To evaluate these compounds, we used dedifferentiated cell lines Lipo863 and Lipo815 as an in-vitro model of dedifferentiated liposarcoma (DDLPS). […] FIG. 15A-15C. Using these candidates as potential pharmacological inhibitors of IWS1, we expected to reproduce/mimic phenotypical changes specific for lentiviral IWS1 knockdown. […] We performed a migration assay to assess the ability of cells to migrate after 24 hours of treatment compared to intact cells (EV) as well as IWS1 knockdown cells (shIWS1). Using drug concentrations that would not affect the viability of the cells, we sought to evaluate predominantly the migratory ability of cells. […] FIG. 17.

[2] = tested on: shIWS1 (IWS1 knockdown) dedifferentiated liposarcoma cells (cell lines Lipo863 and Lipo815); experiment: Migration assay, IWS1 knockdown (shIWS1) cells; type: cell-based, human; conditions: 24 hours of treatment, vs non-treatment control
Description: as §1, §2

Lipo863 cells = experiment: Spheroid formation in matrigel extracellular matrix scaffold; type: cell-based, human; conditions: 14-day treatment; FIG. 19
From the text: FIG. 19. To evaluate the impact of IWS1 inhibition on spheroid formation, a matrigel extracellular matrix scaffold was employed.
To evaluate the impact of IWS1 inhibition on spheroid formation, a matrigel extracellular matrix scaffold was employed.

unresectable LPS = conditions: patients with unresectable LPS; cited from earlier work
IWS1/Spt6 complex = experiment: Co-immunoprecipitation of the IWS1/Spt6 complex from treated cells; type: cell-based, human; conditions: Co-IP after 48 hours of treatment; vs DMSO negative control
From the text: The Co-IP method allowed us to analyze IWS1/Spt6 protein complex directly and assess the efficiency of the drug candidates to disrupt the complex.

IWS1 = target: T1, IWS1 (Homo sapiens, UniProt Q96ST2); experiment: Nuclear/cytosolic fraction analysis of IWS1 distribution; type: cell-based; conditions: 20 uM; 48-hour treatment; DMSO negative control ratio 0.75
T1 construct: document uses human liposarcoma lines; nuclear/cytosolic fractionation
From the text: The binding of the small molecule to IWS1 may cause the redistribution of the latter in the cell (cytoplasmic vs nuclear locations) due to conformational changes of the protein or disruption of its functions. To characterize the effect of a drug candidate on the distribution of IWS1 in the cell, we performed fraction analysis by separating cytoplasmic and nuclear proteins.

[3] = tested on: invasive DDLPS cell line Lipo246; experiment: Invasion of DDLPS cells; type: cell-based; conditions: 48 h, read-out: decrease in invasion ability
From the text: FIG. 18. Evaluation of the effect of IWS1 inhibitors identified from in silico screening on the […] of cancer cells. Invasiveness is important parameter used to characterize the aggressive behavior of cancer cells.
Invasiveness is important parameter used to characterize the aggressive behavior of cancer cells.

[4] = tested on: dedifferentiated liposarcoma (DDLPS) cell line Lipo863; experiment: Cell cytotoxicity (MTS) assay; conditions: Homo sapiens

SMILES: CN1CCC(=C2c3ccccc3C=Cc3ccccc32)CC1 [Cyproheptadine]
- reduction in cell migration, Empty Vector (EV) [1]: 24%
- reduction in migration, shIWS1 cells [2]: no significant reduction

SMILES: Clc1ccc2c(c1)CCc1cccnc1C2=C1CCNCC1 [Desloratadine]
- spheroid formation: number of spheroids (Lipo863 cells): significantly reduced
- spheroid formation: size of spheroids (Lipo863 cells): significantly reduced

SMILES: COc1cccc2c1C(=O)c1c(O)c3c(c(O)c1C2=O)C[C@@](O)(C(=O)CO)C[C@@H]3O[C@H]1C[C@H](N)[C@H](O)[C@H](C)O1 [Doxorubicin]
- 5-year survival (unresectable LPS): 20-30%
- response rate (unresectable LPS): 25%

SMILES: CN1CCC(=C2c3ccccc3CC(=O)c3sccc32)CC1 [Ketotifen]
- decrease in migration ability (dose-dependent) ([1]; 1-10 uM solutions, FIG. 17): 18-44%
- reduction in cell migration, Empty Vector (EV) [1]: 18%
- reduction in migration, shIWS1 cells [2]: no significant reduction
- decrease in amount of IWS1/Spt6 complex pulled down (IWS1/Spt6 complex): more than 50%
- increase of ratio between nuclear and cytosolic fractions of IWS1 (IWS1): 1.1
- inhibition at 20 µM [3]: 30%
- spheroid formation: number of spheroids (Lipo863 cells): significantly reduced
- spheroid formation: size of spheroids (Lipo863 cells): significantly reduced
- IC50 ([4]; read-out: IC50 (cell cytotoxicity assay)): 63 µM
- IC50 ([4]; read-out: IC50 (the concentration at which the drug kills 50% of cancer cells)): 63 µM
